Assay results as given in ChEMBL document CHEMBL1141969, “2-Cyano-4-fluoro-1-thiovalylpyrrolidine analogues as potent inhibitors of DPP-IV” (Bioorg Med Chem Lett, 2005).

Columns and labels:
[1] = target: T1, Prolyl endopeptidase FAP (Homo sapiens, UniProt Q12884); experiment: Inhibitory activity against recombinant seprase
T1 sequence (Q12884 whole entry): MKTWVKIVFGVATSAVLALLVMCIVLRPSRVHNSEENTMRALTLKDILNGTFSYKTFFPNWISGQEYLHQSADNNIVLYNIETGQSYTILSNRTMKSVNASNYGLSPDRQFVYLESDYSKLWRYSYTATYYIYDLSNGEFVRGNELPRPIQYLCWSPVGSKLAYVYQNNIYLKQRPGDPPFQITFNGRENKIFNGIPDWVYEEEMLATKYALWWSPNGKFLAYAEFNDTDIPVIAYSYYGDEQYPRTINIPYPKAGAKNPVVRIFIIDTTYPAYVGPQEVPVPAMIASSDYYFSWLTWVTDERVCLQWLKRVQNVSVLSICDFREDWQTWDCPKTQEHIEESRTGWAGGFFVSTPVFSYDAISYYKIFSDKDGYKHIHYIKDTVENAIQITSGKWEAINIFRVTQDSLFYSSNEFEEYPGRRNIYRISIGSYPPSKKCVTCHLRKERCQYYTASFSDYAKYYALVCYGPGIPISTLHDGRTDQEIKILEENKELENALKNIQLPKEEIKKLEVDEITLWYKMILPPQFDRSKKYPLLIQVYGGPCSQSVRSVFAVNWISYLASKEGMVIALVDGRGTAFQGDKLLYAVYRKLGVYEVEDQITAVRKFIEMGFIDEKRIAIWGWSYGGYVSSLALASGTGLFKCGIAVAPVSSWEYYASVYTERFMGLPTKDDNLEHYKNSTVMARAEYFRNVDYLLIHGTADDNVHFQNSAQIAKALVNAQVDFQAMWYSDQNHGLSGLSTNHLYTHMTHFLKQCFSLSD

[2] = target: Dipeptidyl peptidase 2 (Homo sapiens, UniProt Q9UHL4); experiment: Inhibitory activity against recombinant DPP2
[3] = tested on: Canis familiaris; experiment: Gastro-Intestinal toxicity in dog at 10 mg/kg, po; assay type: organism-based, Canis lupus familiaris; design: dose 10 mg/kg, route oral; conditions: in vivo
[4] = Oral bioavailability in rat, po; assay type: ADME, organism-based; conditions: in vivo
[5] = Half life cyclization at 37 C, pH 7.2; assay type: ADME
[6] = species: Homo sapiens; experiment: Inhibition of cytochrome P450
[7] = Oral bioavailability in rat; assay type: ADME, organism-based; conditions: in vivo
[8] = Half life in rat; assay type: ADME, organism-based; conditions: in vivo
[9] = Half life in dog; assay type: ADME, organism-based, Canis lupus familiaris; conditions: in vivo
[10] = Oral bioavailability in dog; assay type: ADME, organism-based, Canis lupus familiaris; conditions: in vivo

Compound	Ki [1] [µM]	Ki [2] [µM]	other results
CC(C)(SCCc1ccccc1)[C@H](N)C(=O)N1C[C@@H](F)C[C@H]1C#N	> 23.4		
COc1cccc(CS(=O)(=O)C(C)(C)[C@H](N)C(=O)N2C[C@@H](F)C[C@H]2C#N)c1		> 22.4	
CC(C)([C@H](N)C(=O)N1C[C@@H](F)C[C@H]1C#N)S(=O)(=O)Cc1csc2ccc(Cl)cc12		> 22.4	
CC(C)([C@H](N)C(=O)N1C[C@@H](F)C[C@H]1C#N)S(=O)(=O)Cc1ccc(-c2ccccc2)cc1		> 22.4	
CC(C)([C@H](N)C(=O)N1C[C@@H](F)C[C@H]1C#N)S(=O)(=O)Cc1ccncc1	> 23.4	> 22.4	
CC(C)([C@H](N)C(=O)N1C[C@@H](F)C[C@H]1C#N)S(=O)(=O)CCCc1ccccc1	> 23.4	> 22.4	
CC(C)(SCc1cccnc1)[C@H](N)C(=O)N1C[C@@H](F)C[C@H]1C#N	> 23.4	> 22.4	
COc1ccc(C[S+]([O-])C(C)(C)[C@H](N)C(=O)N2C[C@@H](F)C[C@H]2C#N)cc1 (stereo partly drawn)	> 23.4	> 22.4	
CC(C)([C@H](N)C(=O)N1C[C@@H](F)C[C@H]1C#N)S(=O)(=O)Cc1ccccc1	> 23.4	> 22.4	
CC(C)([C@H](N)C(=O)N1C[C@@H](F)C[C@H]1C#N)S(=O)(=O)O		> 22.4	
CC(C)(SCc1ccncc1)[C@H](N)C(=O)N1C[C@@H](F)C[C@H]1C#N		> 22.4	
CC(=O)Nc1ccc(CS(=O)(=O)C(C)(C)[C@H](N)C(=O)N2C[C@@H](F)C[C@H]2C#N)cc1		> 22.4	
CC(C)([C@H](N)C(=O)N1C[C@@H](F)C[C@H]1C#N)S(=O)(=O)Cc1ccc(F)cc1	> 23.4	> 22.4	
CC(C)([C@H](N)C(=O)N1C[C@@H](F)C[C@H]1C#N)S(=O)(=O)Cc1ccc(C#N)cc1		> 22.4	Activity [3]: Toxic
CC(C)([C@H](N)C(=O)N1C[C@@H](F)C[C@H]1C#N)S(=O)(=O)Cc1cccc(Oc2ccccc2)c1		> 22.4	
Cc1ccc(CS(=O)(=O)C(C)(C)[C@H](N)C(=O)N2C[C@@H](F)C[C@H]2C#N)cc1	> 23.4	> 22.4	
COc1ccccc1CS(=O)(=O)C(C)(C)[C@H](N)C(=O)N1C[C@@H](F)C[C@H]1C#N		> 22.4	
CC(C)([C@H](N)C(=O)N1C[C@@H](F)C[C@H]1C#N)S(=O)(=O)Cc1ccc(S(C)(=O)=O)cc1	> 23.4		bioavailability [4]: < 5%
COc1ccc(CS(=O)(=O)C(C)(C)[C@H](N)C(=O)N2CCC[C@H]2C#N)cc1			half-life [5]: 360 h; IC50 [6]: > 15 µM; bioavailability [7]: 4%; half-life [8]: 4.2 h; half-life [9]: 3 h; bioavailability [10]: 100%
CC(C)(SCc1ccccn1)[C@H](N)C(=O)N1C[C@@H](F)C[C@H]1C#N		> 22.4	
COc1ccc(CS(=O)(=O)C(C)(C)[C@H](N)C(=O)N2C[C@@H](F)C[C@H]2C#N)cc1	> 23.4	> 22.4	IC50 [6]: > 15 µM; half-life [8]: 2.3 h; half-life [9]: 3.9 h
CC(C)([C@H](N)C(=O)N1C[C@@H](F)C[C@H]1C#N)S(=O)(=O)Cc1ccc(OCc2ccccc2)cc1		> 22.4	
CC(C)(SCc1ccc(C(F)(F)F)cc1)[C@H](N)C(=O)N1C[C@@H](F)C[C@H]1C#N	> 23.4		
CC(=O)NCSC(C)(C)[C@H](N)C(=O)N1C[C@@H](F)C[C@H]1C#N		> 22.4	
COc1ccc(CSC(C)(C)[C@H](N)C(=O)N2C[C@@H](F)C[C@H]2C#N)cc1	> 23.4		
